The values that follow come from patent US12590126B2, “Compounds for selective disruption of protein-protein interactions” (SyntheX, Inc., priority 2017, dated 2026).

The test system of one data set is SSP-25 cells. Briefly: xCELLigence cell death assay in SSP-25 cells (cellular assay for RAD51 inhibition). The following applies: concentration gradient added at 20 hour mark, only values with R^>0.85 shown. Type of data set: cell-based.
For the next data set, the system named is fresh human RBCs. Type of data set: cell-based. The following applies: red cells of human, 1 h, 250. Summed up: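 Washed RBCs from O+ donors (K2EDTA), diluted to 2% in PBS, incubated with compounds at various concentrations for 1 hr at 37 C. Supernatant absorbance read at 450 or 405 nm after centrifugation; % hemolysis relative to 1% Triton X-100.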
Data set [1] deals with A549 cells. Briefly: A549 cell growth/death, xCELLigence and microscopy. Type of data set: cell-based. The following applies: xCELLigence, concentration gradient. As for the experimental part: To assess the growth inhibitory properties of compounds disclosed herein, 10 μM of Compound 1 was tested against a PBS mock treatment for growth of A549 cells using microscopy at the indicated timepoints shown in the top right corner of each panel of FIG. 2. […] First, 5,000 A549 cells were plated, and adherence and growth was measured for 20 hours using live measurements of current impedance through the plate using the xCELLigence™ instrument. At the […] mark, a concentration gradient of Compound 1 or a PBS control was added to the A549 cells, which were cultured in 100 μL DMEM media with 10% FBS.

The subject of another data set is primary fibroblasts. The data set can be described thus: Selective killing, Cytation imaging of primary fibroblasts. Type of data set: cell-based. The following applies: 10 μM, approx. 5 minute time points. As for the experimental part: To assess the specificity of compounds disclosed herein in targeting cancers with overexpression of RAD51, Compound 1 was tested against primary fibroblasts and SSP25 cells (cholangiocarcinoma cell line) (FIG. 5). First, 5,000 cells were incubated in 96-well culture plates overnight. Cells were grown in DMEM or RPMI, respectively, with 10% FBS, and […] was added to a concentration of 10 μM and imaging commenced using a Cytation™ instrument using approximately 5 minute time points. DAPI was used to visualize the nuclei and mitotracker-red was used to observe mitochondria. […] Furthermore, cell morphology was affected within 5 minutes of imaging, and the macrobubble phenotype was stable for further periods of time.

In the next data set the test system is SSP25 cells. Briefly: xCELLigence cell death assay with intracellular calcium chelators. Type of data set: cell-based. The following applies: relative to compound alone. As for the experimental part: To investigate the hypothesis that peptide treatment of cells causes cell death via increases in intracellular free calcium levels, Compound 1 alone and in combination with two different intracellular calcium chelators (1,2-Bis(2-aminophenoxy)ethane-N,N,N′,N′-tetraacetic acid tetrakis(acetoxymethyl ester) aka “BAPTA-AM”, and ammoniated ruthenium oxychloride aka “ruthenium red”) was tested in an xCELLigence™ cell death assay as in Example 1. The intracellular calcium chelators alone were also evaluated on the cells.

Data set [2] relates to A549 cells. The data set can be described thus: Intracellular calcium imaging with Fluo-2-AM. Type of data set: cell-based. The following applies: 30 μM compound, pre-incubation with 2.5 μM Fluo-2-AM. From the text:
Timestamps for the duration of the experiment are indicated in each panel.

A short description of data set [3]: Mouse pharmacokinetics, IV and IP dosing. Type of data set: in vivo, mice. As for the experimental part:
The pharmocokinetic parameters in mice by both intravenous (IV) and intraperitoneal (IP) dosing, as well as the serum and microsome stability for each of compound 22, 23, 24, and 25 was determined. Bioanalytical methods were developed for each compound using an LC-MS/MS method with LLOQ>100 ng/ml.
For in-vivo PK work, at least 3 mice were used per timepoint. For each compound, the animals were injected either IV or IP with the compound. IV injections used 1 mg/kg, and IP injections were at 15 mg/kg. Blood was collected at the indicated timepoints and analyzed according to the bioanalytical method developed.

The next data set concerns A549 xenograft. The data set can be described thus: A549 xenograft in athymic nude mice, compound 22. The following applies: 15 mpk IP every other day. Type of data set: in vivo. As for the experimental part: The anti-cancer activity of compound 22 was assessed in an A549 xenograft model in a method similar to Example 4. Briefly, A549 cells were implanted into athymic nude female mice. Tumors were allowed to grow to 100 mm^3 before initiation of dosing. Mice were randomly distributed into dosing groups with at least 3 animals per group. Mice were dosed using 15 mpk TP injections every other day.
Tumor volumes and mouse weights were recorded at the indicated timepoints. Terminal tumors were excised and weighed (N=3 for each group).

The nature of data set [4]: in vitro. The following applies: mouse, serum.
Protocol: Serum stability data was obtained using the appropriate animal serum, each incubated with the compound for up to two hours at 37 C.
Data set [5] in a line: in vitro. The following applies: human, microsomes.
Protocol: (§1) For HLM and MLM stability studies, each compound was incubated with the liver microsome mixture for up to an hour at 37 C in the presence of NADPH.
(§2) After the incubations, the reactions were stopped and the compounds were analyzed according to the method developed for each.
A short description of data set [6]: in vitro. The following applies: mouse, microsomes.
Protocol: as §1, §2

Read-outs that look alike come from different tables or passages of the source. Where a SMILES comes first, the peptide text is derived from it. [ ]: non-standard residue; d: D form. 2Nal = N[C@@H](Cc1ccc2ccccc2c1)C(=O)O; dNle = CCCC[C@@H](N)C(=O)O; βAla = NCCC(=O)O

Consider `CSCC[C@@H](NC(=O)[C@@H](CC(C)C)NC(C)=O)C(=O)N[C@H](CCCNC(=N)N)C(=O)N[C@H](CO)C(=O)N[C@H](CCC(N)=O)C(=O)N[C@H](CCCNC(=N)N)C(=O)N[C@H](CC(C)C)C(=O)N[C@H](CCCNC(=N)N)C(=O)N[C@H](CCC(N)=O)C(=O)NCC(=O)N[C@H](CC(C)C)C(=O)N[C@H](CCCNC(=N)N)C(=O)N[C@H](CCCCN)C(=O)N[C@H](CCCNC(=N)N)C(=O)N[C@H](CCCNC(=N)N)C(=O)N[C@H](CCCNC(=N)N)C(=O)N[C@H](CCCNC(=N)N)C(=O)N[C@H](CCCNC(=N)N)C(=O)N[C@H](CCCNC(=N)N)C(=O)N[C@H](CCCNC(=N)N)C(N)=O` [Compound 2, Ac-lmrsqrlrqGlrkrrrrrrr-NH2], for which the IC50 in the data set with SSP-25 cells turned out to be 4220 µM. The “% Hemolysis (250 uM)” value in the data set with fresh human RBCs is reported as 1%. For the same compound, in the data set on A549 cells [1], the “effect on growth / cell death of A549 cells” value was “rapid cell death (decrease in cell index)”. Moreover, the “cell morphology / cell death in primary fibroblasts” value in the data set on primary fibroblasts is “little cell death is generated in the primary fibroblast cells compared to the SSP25 cells”. For the same compound, the “cell death with added calcium chelator BAPTA-AM” value in the data set on SSP25 cells (10 μM compound + 10 μM BAPTA-AM) is given as “able to counteract the cell-death inducing effects”. Also, in the data set with SSP25 cells (10 μM compound + 40 μM Ruthenium red), the “cell death with added calcium chelator ruthenium red” value is listed as “able to counteract the cell-death inducing effects”. Moreover, the “intracellular calcium (Fluo-2 dye)” value in the data set on A549 cells [2] was “shows accumulation in response to treatment”.

For `CCCC[C@@H](NC(=O)[C@@H](CC(C)C)NC(C)=O)C(=O)N[C@H](CCCNC(=N)N)C(=O)NCCC(=O)N[C@@H](C(=O)N[C@H](CCCNC(=N)N)C(=O)N[C@H](CC(C)C)C(=O)N[C@H](CCCNC(=N)N)C(=O)N[C@@H](C(=O)NCCC(=O)N[C@H](CC(C)C)C(=O)N[C@H](CCCNC(=N)N)C(=O)N[C@H](CCCCN)C(=O)N[C@H](CCCNC(=N)N)C(=O)N[C@H](CCCNC(=N)N)C(=O)N[C@H](CCCNC(=N)N)C(=O)N[C@H](CCCNC(=N)N)C(=O)N[C@H](CCCNC(=N)N)C(=O)NCC(=O)N[C@@H](Cc1ccc2ccccc2c1)C(N)=O)C(C)C)C(C)C` [Compound 22, Ac-l{d-norLeucine}r[beta-ALA]vrlrv[beta-ALA]lrkrrrrrGΦ-NH2] (Ac-[dL][dNle][dR][βAla][dV][dR][dL][dR][dV][βAla][dL][dR][dK][dR][dR][dR][dR][dR]G[2Nal]-NH2), the IC50 in the data set with SSP-25 cells is 18 µM. Further, the “% Hemolysis (250 uM)” value with fresh human RBCs stood at 5%. Besides, in [3] (1 mg/kg IV), the “AUC Extr” value was found to be 19.8%. For the same compound, the Vss in data set [3] (15 mg/kg IP) amounted to 1.19 L/kg. For the same compound, the AUC(0-inf) in [3] (in vivo, 1 mg/kg IV) came to 79.3 ng·h/mL; in data set [3] (in vivo, 15 mg/kg IP), 463 ng·h/mL. The AUC(0-t) in [3] (in vivo, 1 mg/kg IV) was found to be 63.9 ng·h/mL. In [3] (in vivo, 1 mg/kg IV), this compound had a C0 of 514 ng/mL. In addition, the MRT inf in data set [3] (in vivo, 1 mg/kg IV) was found to be 0.158 h; in [3] (in vivo, 15 mg/kg IP), 48.3 h. Also, the clearance in data set [3] (in vivo, 1 mg/kg IV) came to 222 mL/min/kg. For the same compound, the half-life in [3] (in vivo, ip, 15 mg/kg, 15 mg/kg IP, read-out: t½ (converted)) is 36.3 min; in data set [3] (in vivo, ip, 15 mg/kg, IP (15 mg/kg), read-out: Half-life Mouse IP) it was 36.3 min; in data set [3] (in vivo, iv, 1 mg/kg, 1 mg/kg IV, read-out: t½ (converted)) it was 7.14 min; in [3] (in vivo, iv, 1 mg/kg, IV (1 mg/kg), read-out: Half-life Mouse IV), 7.16 min; in “in vitro [4]”, over 500 min; in “in vitro [5]”, 365 min. This compound returned a half-life in the data set “in vitro [6]” of over 500 min. Also, the Vd in data set [3] (in vivo, iv, 1 mg/kg, 1 mg/kg IV, read-out: Vss) was 1.87 L/kg; in data set [3] (in vivo, iv, 1 mg/kg, 1 mg/kg IV, read-out: Vz), 2.04 L/kg. Moreover, the tumor growth entry with A549 xenograft is “effective to reduce tumor growth”.
